Data as given in patent US7273723B2, “Antibiotic-based gene regulation system” (priority 2001, dated 2007).

Experiments:
Assay type in all cases: cell-based
[1] = system: ET1 (MphR(A)-VP16) / PETR promoters; experiment: SEAP reporter assay, CHO lines stably expressing ET1 (CHO-ET11, CHO-ET12) transiently transfected with PETR-SEAP plasmids; conditions: for SEAP Production (%) +EM: 2 μg/ml EM, −EM = 100; for SEAP activity [U/L] + EM: erythromycin 2 μg/ml
Description: (§1) Chinese hamster ovary cells (CHO-K1, ATCC: CCL 61), and HeLa cells (ATCC: CRL-7923) as well as stable cell lines derived thereof were cultured as described before (Fussenegger et al., 1998, Nat. Biotechnol. 16,468-472) in the presence of appropriate antibiotics: G418 400 μg/ml; zeocin 100 μg/ml. Optimized CaPO4 protocols were used for high efficiency transient transfection of all cell lines (Fussenegger et al., 1998. Nat. Biotechnol. 16: 468-472). Transiently transfected cells were routinely analyzed after 48 h for CFP or SEAP expression using fluorescence microscopy and p-nitrophenolphosphate-based light absorbance timecourse, respectively, as described before (Fussenegger et al., 1998, Nat. Biotechnol. 16, 468-472; Berger et al., 1988, Gene 66, 1-10 b). For construction of stable CHO-ET1 and CHO-Triplet42 cell lines, CHO-Ki and CHO-TWIN1108 (Disclosed in PCT application no. 00/65080) were cotransfected with pWW35 and pZeoSV2 (invitrogen). CHO-ET11-SEAP was constructed by cotransfection of pWW38 and pSV2neo (Clontech) into CHO-ET11. The mixed populations were cloned using FACS-mediated single-cell-sorting (FACStar^Plus; Beckton Dickinson). For assessment of dose-response characteristics of PETR3-regulated gene expression, CHO-ET11-SEAP were cultured at cell densities of 50,000/ml for 48 h at various EM concentrations.
(§2) Other antibiotics were eluted from antibiotic test discs (Mast Diagnostica GmbH, Reinfeld, Germany, or bioMérieux, Geneva Switzerland) in cell culture medium at 37° C. for 12 h to reach a final concentration of 30 μg/ml. All macrolide antibiotics were used at a 2 μg/ml concentration unless indicated otherwise.
Two representative clones, CHO-ET11 and CHO-ET12, were chosen at random among ET1-expressing CHO cell clones stably transfected with a constitutive ET1 expression construct (pWW35).
Access to alternative effective antibiotics would expand the spectrum of regulating agents available for future use in human cell and gene therapy. Accordingly, several commercially available antibiotic sources were tested for their potential to regulate the ET1/PETR3 system as shown below in Table 3.
The effect of the different spacer length in promoters PETR2 and PETR7-PETR11 were examined by transfecting the corresponding plasmids (pWW37, pBP10-pBP14) into a CHO cell line stably transfected with the transactivator ET1 (MphR(A)-VP 16, see example 1).

[2] = biological target: T1, tTA / tetracycline-responsive promoter PhCMV*-1 (Escherichia coli, UniProt P04483); experiment: SEAP assay in CHO-Triplet42 transfected with PhCMV*-1-SEAP (pMF111); conditions: CHO-Triplet42 + pMF111 (PhCMV*-1); antibiotic 2 μg/ml; 48 h
T1 construct: expressed in transfected cells; host or cells: CHO-Triplet42 (from CHO-TWIN1108)
T1 sequence (P04483 whole entry, added parts left off): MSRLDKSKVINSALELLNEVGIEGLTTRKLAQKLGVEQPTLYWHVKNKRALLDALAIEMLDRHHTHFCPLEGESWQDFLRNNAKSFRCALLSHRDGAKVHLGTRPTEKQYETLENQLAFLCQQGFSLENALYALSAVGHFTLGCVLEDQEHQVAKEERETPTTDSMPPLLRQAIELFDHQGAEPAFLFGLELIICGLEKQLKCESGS
Description: as §1, §2

[3] = system: transrepressors MphR(A) or ET4 (MphR(A)-KRAB) / PETRON promoters; experiment: Erythromycin-inducible EON system, SEAP assay in transiently cotransfected CHO-K1; conditions: for SEAP activity [U/L] +Erythromycin [2 μg/ml]: CHO-K1, 48 hrs, title: erythromycin (2 μg/ml)
From the text: The classical ET/PETR system belongs to the “OFF” family of regulation concepts since gene expression is activated upon withdrawal of the regulating antibiotic. However, in some applications such as gene therapy and tissue engineering an “ON” system that is induced upon addition of macrolide antibiotics is more desirable. We therefore constructed a new MphR(A)-based binary EON system which consists of a PETRON promoter and a set of two different transrepressors. Two different PETRON promoters were constructed: PETRON4 consists of an ETR4 (four tandem repetitions of ETR, SEQ ID NO 26) placed downstream of the strong viral SV40 promoter. PETRON8 contains eight tandem repetitions (SEQ ID NO 27) of ETR instead of four.
Transrepressors such as ET4 (SEQ ID NO 10, example 1, FIG. 2), which consists of a protein fusion between MphR(A) and the KRAB silencing domain of the human kox-1 gene (Deuschle et al., 1995, Mol. Cell Biol. 15: 1907-1914) or MphR(A) alone, bind to ETR in front of PSV40 and block transcription of this promoter. Besides sterical transcription blocking, the silencing domain of ET4 can additionally downregulate PSV40 activity.
The ETR4 sequence (SEQ ID NO: 26) was excised from the WEBE Gene vector (custom synthesized by Operon Technologies Inc.) by SfuI and EcoRI and ligated into the corresponding sites of pMF208 (Fussenegger et al., 2000. supra) thus resulting in plasmid pWW55 (FIG. 7) containing the PSV40-ETR4-SEAP cassette. The combination of PSV40 and ETR4 is designated PETRON4. For construction of PETRON8, ETR4 was excised (PmeI/EcoRI) from pWW55 and cloned into pWW55 restricted with (EcoRV/EcoRI) thus resulting in SV40-ETR8-SEAP (pWW56).
ET4, the MphR(A)-KRAB fusion protein was constructed as described in example 1 (SEQ ID NO 10). For expression of MphR(A) pWW29 (SEQ ID NO 4) was used. The stop codon of the original MphR(A) has been mutated in order to allow fusion to the various transactivating and transrepressing domains. Because of the mutation of this stop codon the mphR(A) gene contained in pWW29 is terminated a few bp downstream at the next stop codon encountered in the vector sequence. However, the resulting MphR(A) protein preserves its role as transcriptional repressor in the EON configuration.
The regulation performance of PETRON4 (PSV40-ETR4-SEAP-pA; pWW55) and PETRON8 (PSV40-ETR8-SEAP-pA; pWW56) was assessed in CHO-K1 cells harboring the MphR(A) expression vector pWW29 (PEF1α-E-pA) (Table 7).

With `CC[C@H]1OC(=O)[C@H](C)[C@@H](O[C@H]2C[C@@](C)(OC)[C@@H](O)[C@H](C)O2)[C@H](C)[C@@H](O[C@@H]2O[C@H](C)C[C@H](N(C)C)[C@H]2O)[C@](C)(O)C[C@@H](C)C(=O)[C@H](C)[C@@H](O)[C@]1(C)O` [Erythromycin] the “SEAP Production (%) +EM” value ([1]; CHO-ET11 + PETR3-SEAP (pWW38)) was 1.75 ± 0.1%, the “SEAP production [%]” value ([1]; CHO-ET11 transiently transfected with pWW38, 48 h, antibiotic 2 μg/ml, no macrolide = 100) was 1.7 ± 0.1% and the “SEAP Production (%) +EM” value ([1]; CHO-ET12 + PETR3-SEAP (pWW38)) was 4.67 ± 0.8%. The “Reversibility of EM-responsive SEAP regulation” value ([1]; both CHO-ET1 derivatives, repeated cycles of addition and withdrawal) was “fully reversible”, the “SEAP activity [U/L] + EM” value ([1]; pBP10 (PETR7, 2 bp) in CHO stably transfected with ET1, 48 h) was 4.2 ± 1.0 U/L and the “SEAP activity [U/L] + EM” value ([1]; pBP12 (PETR9, 6 bp) in CHO stably transfected with ET1, 48 h) was 8.4 ± 1.6 U/L. For the same compound, the “SEAP activity [U/L] + EM” value ([1]; pBP13 (PETR10, 8 bp) in CHO stably transfected with ET1, 48 h) was 19.7 ± 1.4 U/L, the “SEAP activity [U/L] + EM” value ([1]; pWW37 (PETR2, 0 bp) in CHO stably transfected with ET1, 48 h) was 8.3 ± 0.2 U/L and the “SEAP activity [U/L]” value [2] was 195.1 ± 15.1 U/L. For the same compound, the “SEAP activity [U/L] +Erythromycin [2 μg/ml]” value (from here on “SEAP activity … [2 μg/ml]”) ([3]; PETR-ON4 + ET4) was 35.7 ± 4.7 U/L, the “SEAP activity … [2 μg/ml]” value ([3]; PETR-ON4 + MphR(A)) was 175.7 ± 6.2 U/L and the “Induction factor (expression in induced state to expression in repressed state)” value ([3]; PETR-ON4 repressed by MphR(A)) was about 5. For the same compound, the “SEAP activity … [2 μg/ml]” value ([3]; PETR-ON8 + ET4) was 55.4 ± 1.8 U/L, the “SEAP activity … [2 μg/ml]” value ([3]; PETR-ON8 + MphR(A)) was 81.6 ± 4.3 U/L and the “Induction factor (expression in induced state to expression in repressed state)” value ([3]; PETR-ON8 repressed by MphR(A)) was about 5.
